Assays:
[1] = T4 / FT4 levels in treated cancer patients (summary of empirical findings); type: in vivo, human; conditions: Cytomel at 5-40 μg/day
Source text: (§1) These clinical findings correlated with the subject being at a state of moderate hypothyroidism, as indicated by the low levels (below normal) of T4 in the subject's blood and above normal values of TSH; • combined treatment of cancer subjects with an anti-thyroid agent, such as methimazole or PTU, in combination with Cytomel®, slowed tumor growth and/or enhanced sensitivity of the tumor cells to chemotherapy and/or radiation therapy.

cancer = experiment: Growth of cancer in treated cancer patients (summary of empirical findings); type: in vivo, human; conditions: Cytomel at 5-40 μg/day
Source text: as §1

[2] = Free T4 / TSH monitoring under hypothyroid induction therapy, glioblastoma subject (Example 1); type: in vivo, human; conditions: Example 1 GBM subject; PTU 600 mg/day in parallel with temozolomide; after about 12 weeks of treatment
Experimental: Shortly thereafter carboplatin treatment (7 mg/kg) was initiated along with continuation of the thyroid reduction therapy, using 600 mg/day PTU.
In order to achieve hypothyroxinemia, in addition to PTU, 5 μg of triiodotionine (T3) was added 3 times a day in order to inhibit TSH and reduce thyroxine level.

[3] = tested on: grade IV glioblastoma (GBM); experiment: Brain MRI tumor response, glioblastoma subject (Example 1); type: in vivo, human; conditions: Example 1, tumor recurrence about two years later; regimen as labelled
[4] = Free T4 level, subject with malignant fibrous histiocytoma (Example 2); type: in vivo, human; conditions: methimazole 40 mg/day with palliative radiation (46Gy), after 2 months
Experimental: The subject was maintained on Cytomel® 5 μg, three times a day and methimazole (reduced to 30 mg once a day).

[5] = tested on: malignant fibrous histiocytoma (MFH) of the left pulmonary vein; experiment: Tumor size / mass, subject with malignant fibrous histiocytoma (Example 2); conditions: methimazole 40 mg/day with palliative radiation (46Gy), after 2 months

N[C@@H](Cc1cc(I)c(Oc2ccc(O)c(I)c2)c(I)c1)C(=O)O [Cytomel®, Liothyronine sodium]
T4 levels [1]: decrease in T4 levels | growth of the cancer (cancer): slows the growth of the cancer

CCCc1cc(=O)[nH]c(=S)[nH]1 [PTU, propylthiouracil]
T4 levels [2]: slightly reduced

N.N.O=C([O-])C1(C(=O)[O-])CCC1.[Pt+2] [carboplatin]
tumor response on MRI at recurrence [3]: no response

Cn1cc[nH]c1=S [methimazole]
free T4 level [4]: no change | tumor size [5]: no change

From US10398789B2, “Methods, compositions and kits for providing a therapeutic treatment” (priority 2010, dated 2019)
